Where “and” joins values, the source holds several entries; their conditions need not be identical. Equal values may be shown once.
What was measured:
[1] = test system: CT-26 murine colon cancer xenograft; assay: In vivo tumor growth, CT-26 murine colon cancer xenograft model (Example 6); set-up: species or system Mouse (Mus Musculus); settings: Nepicastat 50 mg/kg, QD, oral
Description: (§1) Experiments using the murine H22, CT-26 and EMT-6 xenograft models were performed as described below.
(§2) Cells were cultured in RPMI-1640 medium supplemented with 10% FBS at 37° C. in an atmosphere of 5% CO2 in air. The tumor cells were routinely subcultured three times weekly. The cells that grew in an exponential growth phase were harvested and counted for tumor inoculation.
(§3) Mice (female, 6-8 weeks old) were inoculated subcutaneously at the right flank with the tumor cells (H22, EMT-6, or CT-26) in 0.1 mL PBS for tumor development. When the tumor volume reached approximately 60-80 mm^3, the mice were grouped randomly according to the animal body weight and tumor volume. Each group had 5-8 tumor-bearing mice.
(§4) The major endpoint was to determine if tumor growth could be delayed or mice could be cured. Tumor volume was measured three times weekly in two dimensions using a caliper, and the volume was expressed in mm^3 using the formula: V=0.5 a×b^2, where a and b are the long and short diameters of the tumor, respectively. The T/C value (in percent) was an indication of antitumor effectiveness, where T and C were the mean volume of the treated and control groups, respectively, on a given day. The T-C value was calculated according to TV. T-C was calculated with T as the median time (in days) required for the treatment group tumors to reach a predetermined size (e.g., TV as 1000 mm^3), and C as the median time (in days) for the control group tumors to reach the same size. The body weights were measured and recorded at the same time to observe the toxicity of the compounds. The animals were sacrificed at the termination of the study.
(§5) Summary statistics, including mean and the standard error of the mean (SEM), are provided for the tumor volume of each group at each time point. A two-way analysis of variance (ANOVA) was performed to compare body weight, tumor volume and tumor volume change. A one-way ANOVA was performed to compare tumor weight. All data were analyzed using GraphPad Prism 5. p<0.05 was considered to be statistically significant.
(§6) Nepicastat was also tested for in vivo tumor growth inhibition in CT-26 murine colon cancer and EMT-6 murine breast cancer xenograft models. Nepicastat was administered orally.

[2] = clinical dosage of nepicastat 160 mg/day; read-out: plasma maximal concentration (Cmax); cited from earlier work
[3] = test system: H22 murine hepatic cancer xenograft; assay: In vivo tumor growth, H22 murine hepatic cancer xenograft model (Example 4); set-up: species or system Mouse (Mus Musculus)
Description: as §1, §2, §3, §4, §5
The anti-cancer activity of amperozide and nepicastat was evaluated in a H22 murine hepatic cancer xenograft model according to the experimental procedure described in Example 2. Anti-cancer activity was evaluated by measuring changes in tumor volume.

[4] = test system: H22 murine hepatic cancer xenograft; assay: In vivo tumor growth, H22 murine hepatic cancer xenograft model, compared with anti-PD-1 mAb (Example 5); set-up: species or system Mouse (Mus Musculus); settings: p.o.; for Tumor Volume (mm^3): QD x 20 days; for T/C (%) / TGI (%) tumor growth inhibition: QD
Description: as §1, §2, §3, §4, §5
The anti-cancer activity of nepicastat, etamicastat and anti-PD-1 monoclonal antibody (mAb) was evaluated in a H22 murine hepatic cancer xenograft model according to the experimental procedure described in Example 2.

[5] = test system: EMT-6 murine breast cancer xenograft; assay: In vivo tumor growth, EMT-6 murine breast cancer xenograft model (Example 6); set-up: species or system Mouse (Mus Musculus); settings: Nepicastat 50 mg/kg, QD, oral
Description: as §1, §2, §3, §4, §5, §6

[6] = test system: H22 murine hepatocarcinoma cell line; assay: In vitro cell proliferation assay (CellTiter-Glo) in H22 murine hepatocarcinoma cell line; type: cell-based
Description: Methods: • (1) Cells were cultured in RPMI-1640 medium supplemented with 10% FBS, 100 U/ml penicillin, and […] streptomycin at 37° C. and 5% CO2 atmosphere. […] The anti-proliferative activity of amperozide, nepicastat, and paclitaxel was tested in the H22 murine hepatocarcinoma cell line according to the experimental procedure described in Example 1.

[7] = Nepicastat 48 mg/kg, day 19, listed as nepicastat

NCc1c[nH]c(=S)n1[C@H]1CCc2c(F)cc(F)cc2C1 [Nepicastat, nepicastat]
T/C (%) ([1]; CT-26 model, End): 65.70% | TGI (%) tumor growth inhibition ([1]; CT-26 model, End): 34.30% | Tumor Volume (mm^3) in CT-26 Model ([1]; day 7 (Initiation)): 59.35 ± 1.65 mm^3 and 59.35 ± 3.69 mm^3 | Tumor Volume (mm^3) in CT-26 Model ([1]; day 10): 86.00 ± 11.91 mm^3 | Tumor Volume (mm^3) in CT-26 Model ([1]; day 14): 314.14 ± 33.19 mm^3 | Tumor Volume (mm^3) in CT-26 Model ([1]; day 17): 501.46 ± 50.04 mm^3 | Tumor Volume (mm^3) in CT-26 Model ([1]; day 21 (End)): 1087.75 ± 163.63 mm^3 | Cmax [2]: ~200 nM | T-C (days) (Reach 1000 mm^3) ([3]; Nepicastat 16 mg/kg): 1 days | Tumor Volume ([3]; Nepicastat 16 mg/kg, day 5): 80 ± 6 mm^3 | Tumor Volume ([3]; Nepicastat 16 mg/kg, day 7): 140 ± 13 mm^3 | Tumor Volume ([3]; Nepicastat 16 mg/kg, day 9): 260 ± 25 mm^3 | Tumor Volume ([3]; Nepicastat 16 mg/kg, day 12): 542 ± 75 mm^3 | Tumor Volume ([3]; Nepicastat 16 mg/kg, day 14): 982 ± 111 mm^3 | Tumor Volume ([3]; Nepicastat 16 mg/kg, day 16): 1,454 ± 173 mm^3 | T/C (%) ([3]; Nepicastat 16 mg/kg, day 19): 84.1% | TGI (%) tumor growth inhibition ([3]; Nepicastat 16 mg/kg, day 19): 15.9% | Tumor Volume ([3]; Nepicastat 16 mg/kg, day 19): 2,546 ± 306 mm^3 | T-C (days) (Reach 1000 mm^3) ([3]; Nepicastat 48 mg/kg): 2 days | Tumor Volume ([3]; Nepicastat 48 mg/kg, day 5): 80 ± 6 mm^3 | Tumor Volume ([3]; Nepicastat 48 mg/kg, day 7): 146 ± 12 mm^3 | Tumor Volume ([3]; Nepicastat 48 mg/kg, day 9): 249 ± 26 mm^3 | Tumor Volume ([3]; Nepicastat 48 mg/kg, day 12): 493 ± 74 mm^3 | Tumor Volume ([3]; Nepicastat 48 mg/kg, day 14): 795 ± 129 mm^3 | Tumor Volume ([3]; Nepicastat 48 mg/kg, day 16): 1,150 ± 188 mm^3 | T/C (%) ([3]; Nepicastat 48 mg/kg, day 19): 65.8% | TGI (%) tumor growth inhibition ([3]; Nepicastat 48 mg/kg, day 19): 34.2% | Tumor Volume ([3]; Nepicastat 48 mg/kg, day 19): 1,992 ± 349 mm^3 | T/C (%) [3, 7]: 66% | Tumor Volume [3, 7]: 1992 mm^3 | Tumor Volume (mm^3) ([4]; Nepicastat 50 mg/kg, day 3): 56.45 ± 4.42 mm^3 | Tumor Volume (mm^3) ([4]; Nepicastat 50 mg/kg, day 6): 107.64 ± 2.13 mm^3 | Tumor Volume (mm^3) ([4]; Nepicastat 50 mg/kg, day 9): 212.98 ± 15.54 mm^3 | Tumor Volume (mm^3) ([4]; Nepicastat 50 mg/kg, day 13): 369.64 ± 18.63 mm^3 | Tumor Volume (mm^3) ([4]; Nepicastat 50 mg/kg, day 16): 552.37 ± 34.69 mm^3 | Tumor Volume (mm^3) ([4]; Nepicastat 50 mg/kg, day 19): 677.68 ± 29.38 mm^3 | Tumor Volume (mm^3) ([4]; Nepicastat 50 mg/kg, day 22): 880.28 ± 33.41 mm^3 | Tumor Volume (mm^3) ([4]; Nepicastat 50 mg/kg, day 22, listed as nepicastat): 880.28 mm^3 | T/C (%) ([4]; Nepicastat 50 mg/kg, day 22): 51.21% | TGI (%) tumor growth inhibition ([4]; Nepicastat 50 mg/kg, day 22): 48.79% | Tumor Volume (mm^3) ([4]; Nepicastat 100 mg/kg, day 3): 56.41 ± 3.96 mm^3 | Tumor Volume (mm^3) ([4]; Nepicastat 100 mg/kg, day 6): 120.60 ± 12.92 mm^3 | Tumor Volume (mm^3) ([4]; Nepicastat 100 mg/kg, day 9): 238.00 ± 22.62 mm^3 | Tumor Volume (mm^3) ([4]; Nepicastat 100 mg/kg, day 13): 384.72 ± 54.05 mm^3 | Tumor Volume (mm^3) ([4]; Nepicastat 100 mg/kg, day 16): 658.54 ± 71.96 mm^3 | Tumor Volume (mm^3) ([4]; Nepicastat 100 mg/kg, day 19): 1049.88 ± 145.91 mm^3 | Tumor Volume (mm^3) ([4]; Nepicastat 100 mg/kg, day 22): 1275.47 ± 154.93 mm^3 | Tumor Volume (mm^3) ([4]; Nepicastat 100 mg/kg, day 22, listed as nepicastat): 1275.47 mm^3 | T/C (%) ([4]; Nepicastat 100 mg/kg, day 22): 74.20% | TGI (%) tumor growth inhibition ([4]; Nepicastat 100 mg/kg, day 22): 25.80% | T/C (%) ([5]; EMT-6 model, End): 76.91% | TGI (%) tumor growth inhibition ([5]; EMT-6 model, End): 23.09% | Tumor Volume (mm^3) in EMT-6 Model ([5]; day 5 (Initiation)): 61.55 ± 1.37 mm^3 and 61.55 ± 3.06 mm^3 | Tumor Volume (mm^3) in EMT-6 Model ([5]; day 8): 110.11 ± 2.13 mm^3 | Tumor Volume (mm^3) in EMT-6 Model ([5]; day 12): 229.32 ± 21.67 mm^3 | Tumor Volume (mm^3) in EMT-6 Model ([5]; day 15): 385.24 ± 66.33 mm^3 | Tumor Volume (mm^3) in EMT-6 Model ([5]; day 19 (End)): 697.23 ± 35.90 mm^3 | Cell viability (%) ([6]; 0.1 μM, 72 h, H22 cells): 103.2% | anti-proliferative effect on H22 cell line ([6]; 1 μM and 0.1, in words): did not show any significant anti-proliferative effects | viability at 0.1 µM ([6]; Mus musculus, H22, 72 h, 0.1 μM, 72 h, H22 cells, read-out: Cell viability (%)): 102% | viability at 1 µM ([6]; Mus musculus, H22, 72 h, 1 μM, 72 h, H22 cells, read-out: Cell viability (%)): 94.4% | IC50 ([6]; Mus musculus, calculated from FIG. 1, read-out: IC50 in H22 murine hepatocarcinoma cells proliferation): 52.6 µM
